EP2669276A1 (Université de Strasbourg, priority 2012, dated 2013)
Where “and” joins values, the source holds several entries; their conditions need not be identical. Equal entries are not always repeated.

Legend:
hNPFF1 = molecular target: T1, hNPFF1 (Homo sapiens, UniProt Q9GZQ6); assay: Receptor binding assay with [3H]-FFRFamide on CHO cell membranes expressing SF-hNPFFR1
T1 construct: The cDNA encoding the full-length human NPFFR1 and human NPFFR2; expressed in transfected cells
Source text: (§1) The cDNA encoding the full-length human NPFFR1 and human NPFFR2 were subcloned into the pcDNA3 expression vector (Invitrogen, Cergy Pontoise, France) using standard molecular biology methods. A sequence encoding a signal sequence and a Flag epitope was fused to the 5' coding sequence of both hNPFFR1 and hNPFFR2 cDNA according to (Guan et al., 1992) resulting in a SF-hNPFFR1 and SF-hNPFFR2 constructs. These contructs were stably transfected into CHO cells.
(§2) Membranes from CHO cells stably expressing SF-hNPFFR1 or SF-hNPFFR2 were prepared as described (Becker et al., 1999). SF-hNPFFR1 or SF-hNPFFR2 membranes (10µg) were incubated for 30 min at 25 °C in a final volume of 0.5 ml containing 50 mM HEPES pH 7.4, 1 mM CaCl2, 1 mM MgCl2, 0.1% bovine serum albumin, 10 nM and 3 nM [^3H]-FFRFamide (CEA, Paris; specific activity, 13,6 Ci/mmol) for […], respectively and the ligands to be tested. Non-specific binding was determined in presence of 1 µM neuropeptide FF for SF-hNPFFR2 and 1 µM neuropeptide VF for SF -hNPFFR1. Typical total and nonspecific binding were 1200 and 200 dpm, respectively for SF-hNPFFR1 and SF-hNPFFR2. Incubation mixtures were rapidly filtered and washed with 50 mM HEPES pH 7.4, 1 mM CaCl2, 1 mM MgCl2, on 96 wells GF/B unifilter (Perkin Elmer). Unifilter plates where then dryied for 1hr at 65°C. Bound radioactivity was determined by scintillation counting with 30 µl of scintillation cocktail (O-scint, Perkin Elmer) per well on a Topcount scintillation apparatus (Perkin Elmer).

hNPFF2 = molecular target: T2, hNPFF2 (Homo sapiens, UniProt Q9Y5X5); assay: Receptor binding assay with [3H]-FFRFamide on CHO cell membranes expressing SF-hNPFFR2
T2 construct: The cDNA encoding the full-length human NPFFR1 and human NPFFR2; expressed in transfected cells
Source text: as §1, §2

hNPFFR1 [1] = molecular target: T3, hNPFFR1 (Homo sapiens, UniProt Q9GZQ6); assay: [35S]GTPγS binding measurement on SF-hNPFFR1 membranes; format: biochemical; conditions: tested alone, up to 50 µM
T3 construct: The cDNA encoding the full-length human NPFFR1 and human NPFFR2; expressed in transfected cells
Procedure: For [^35S]GTPγS binding experiments, SF-hNPFFR1 or SF-hNPFFR2 membrane proteins (5 µg) were incubated for 45 min at 30 °C in a final volume of 0.5 ml containing 20 mM HEPES pH 7.4, 100 mM NaCl, 3 mM MgCl2, 10 µM GDP, 10 µg/ml Saponin, 0.1 nM [^35S]GTPγS and ligands. Non-specific binding was determined in the presence of 10 µM GTPγS. Incubation mixtures were rapidly filtered and washed with 10 mM HEPES pH 7.4, 0,5 M NaCl, 1,5 mM MgCl2, on 96 wells GF/B unifilter (Perkin Elmer). Unifilter plates where then dryied for 1hr at 65°C. Bound radioactivity was determined by scintillation counting with 30 µl of scintillation cocktail (O-scint, Perkin Elmer) per well on a Topcount scintillation apparatus (Perkin Elmer).

hNPFFR1 [2] = molecular target: T3, hNPFFR1; assay: cAMP measurement (forskolin-stimulated cAMP accumulation) in CHO cells expressing SF-hNPFFR1; format: cell-based
Procedure: Functional coupling of SF-hNPFFR1 and SF-hNPFFR2 to adenylyl cyclase was assessed by measuring the inhibitory effects of agonist/antagonist and related compounds on forskolin-stimulated cAMP accumulation in CHO cells stably expressing both receptors as previously described (Gicquiaux et al., 2001) with minor modifications. Briefly, 80% confluent CHO cells expressing SF-hNPFFR1 or SF-hNPFFR2 were harvested and seeded in 96-well plates at an initial density of 10,000 cells per well. After 1-2 days of culture (90% confluency), cells were washed with 0.2 ml of PBS (in mM: 137 NaCl, 2.7 KCl, 0.9 CaCl2, 0.5 MgCl2, 6.5 Na2HPO4, 1.5 KH2PO4, pH 7.2), and then incubated at 37°C for 10 min with 0.2 ml assay buffer (in mM: 150 NaCl, 5 KCl, 2.5 CaCl2, 1.2 KH2PO4, 1.2 MgSO4, 25 NaHCO3, 10 HEPES, 10 mg/ml BSA, pH 7.4). […] The reaction was stopped by addition of 0.04 ml volume ice-cold 0.5 M HCl and cells were frozen (-80°C 1 hour) disrupted by sonication and suspensions were centrifuged at 2,000 × g for 15 min. The resulting supernatants were stored at -20°C until determination of cAMP by radioimmunoassay as described (Cailla et al., 1973). For antagonist evaluation, dose response curves of agonists (NPVF and NPFF for hNPFFR1 and hNPFFR2, respectively) were performed in the presence of fixed concentrations of antagonist. […]

[3] = system: Fentanyl-induced hyperalgesia in rats; assay: Fentanyl-induced hyperalgesia in rats (paw pressure vocalization test); format: in vivo; conditions: for fentanyl-induced hyperalgesia / development of fentanyl-induced hyperalgesia: rats, 30 min before fentanyl; for fentanyl-induced hyperalgesia: P < 0.001, Newman-Keuls test
[4] = system: Fentanyl-induced hyperalgesia followed by carrageenan injection in rats; assay: Fentanyl-induced hyperalgesia followed by carrageenan injection in rats; format: in vivo; conditions: 0.5 mg/kg s.c. 30 min before fentanyl at D0, carrageenan at D13, P < 0.001 Newman-Keuls test
hNPFFR1 [5] = molecular target: T3, hNPFFR1; assay: cAMP measurement (forskolin-stimulated cAMP accumulation) in CHO cells expressing SF-hNPFFR1; format: cell-based; conditions: antagonism of NPVF, Schild analysis; S.E.M. below 15%
Procedure: (§3) Functional coupling of SF-hNPFFR1 and SF-hNPFFR2 to adenylyl cyclase was assessed by measuring the inhibitory effects of agonist/antagonist and related compounds on forskolin-stimulated cAMP accumulation in CHO cells stably expressing both receptors as previously described (Gicquiaux et al., 2001) with minor modifications. Briefly, 80% confluent CHO cells expressing SF-hNPFFR1 or SF-hNPFFR2 were harvested and seeded in 96-well plates at an initial density of 10,000 cells per well. After 1-2 days of culture (90% confluency), cells were washed with 0.2 ml of PBS (in mM: 137 NaCl, 2.7 KCl, 0.9 CaCl2, 0.5 MgCl2, 6.5 Na2HPO4, 1.5 KH2PO4, pH 7.2), and then incubated at 37°C for 10 min with 0.2 ml assay buffer (in mM: 150 NaCl, 5 KCl, 2.5 CaCl2, 1.2 KH2PO4, 1.2 MgSO4, 25 NaHCO3, 10 HEPES, 10 mg/ml BSA, pH 7.4). After removal of buffer, 0.06 ml of fresh buffer containing 1 mM 3-isobutyl-1-methyl-xanthine (IBMX) was added for 10 min and cells were exposed to 10 µM forskolin without and with compounds (10^-10-10^-5 M) for 10 min at 37 °C in a final volume of 0.1 ml. The reaction was stopped by addition of 0.04 ml volume ice-cold 0.5 M HCl and cells were frozen (-80°C 1 hour) disrupted by sonication and suspensions were centrifuged at 2,000 × g for 15 min. The resulting supernatants were stored at -20°C until determination of cAMP by radioimmunoassay as described (Cailla et al., 1973). […]

hNPFFR2 = molecular target: T4, hNPFFR2 (Homo sapiens, UniProt Q9Y5X5); assay: cAMP measurement (forskolin-stimulated cAMP accumulation) in CHO cells expressing SF-hNPFFR2; format: cell-based; conditions: antagonism of NPFF, Schild analysis; S.E.M. below 15%
T4 construct: The cDNA encoding the full-length human NPFFR1 and human NPFFR2; expressed in transfected cells
Procedure: as §3

[6] = system: hyperalgesia induced by administration of opiate analgesics; conditions: rat, in vivo; cited from earlier work

T1 sequence (Q9GZQ6 whole entry): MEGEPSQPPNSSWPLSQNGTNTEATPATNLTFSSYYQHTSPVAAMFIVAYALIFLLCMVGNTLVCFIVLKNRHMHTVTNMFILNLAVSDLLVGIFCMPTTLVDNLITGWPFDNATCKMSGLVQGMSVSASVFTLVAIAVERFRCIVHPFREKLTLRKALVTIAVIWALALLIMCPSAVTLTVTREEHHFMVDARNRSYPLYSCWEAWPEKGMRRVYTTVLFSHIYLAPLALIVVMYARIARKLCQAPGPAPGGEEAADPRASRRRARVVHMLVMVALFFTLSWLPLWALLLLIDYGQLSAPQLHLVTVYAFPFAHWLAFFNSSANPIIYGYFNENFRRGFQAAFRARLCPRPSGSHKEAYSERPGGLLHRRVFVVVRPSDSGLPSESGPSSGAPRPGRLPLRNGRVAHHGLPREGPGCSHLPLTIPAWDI
T3 sequence (Q9GZQ6 whole entry): as above
T2 sequence (Q9Y5X5 whole entry): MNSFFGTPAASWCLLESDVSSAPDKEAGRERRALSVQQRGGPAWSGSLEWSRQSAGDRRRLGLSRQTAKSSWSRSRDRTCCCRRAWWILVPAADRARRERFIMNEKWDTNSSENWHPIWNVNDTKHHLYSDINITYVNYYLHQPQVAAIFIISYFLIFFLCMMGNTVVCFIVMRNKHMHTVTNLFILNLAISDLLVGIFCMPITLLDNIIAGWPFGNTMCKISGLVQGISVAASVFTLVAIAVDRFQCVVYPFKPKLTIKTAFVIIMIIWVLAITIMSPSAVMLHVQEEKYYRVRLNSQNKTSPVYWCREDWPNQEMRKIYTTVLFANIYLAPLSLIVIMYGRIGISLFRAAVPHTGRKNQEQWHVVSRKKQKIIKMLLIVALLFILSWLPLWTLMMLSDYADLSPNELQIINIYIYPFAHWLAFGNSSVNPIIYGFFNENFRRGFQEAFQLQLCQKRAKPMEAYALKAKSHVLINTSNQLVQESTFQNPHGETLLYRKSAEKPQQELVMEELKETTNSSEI
T4 sequence (Q9Y5X5 whole entry): as above

Ki (hNPFF1; [3H]-FFRF-NH2 radioligand, mean of at least two experiments, read-out: Ki NPFF1)	affinity for NPFFR1 (hNPFF1; in words)	Ki (hNPFF2; [3H]-FFRF-NH2 radioligand, unit µM printed with the value, read-out: Ki NPFF2) [µM]	affinity for NPFFR2 (hNPFF2; in words)	stimulation of the binding of [35S]GTPgS (hNPFFR1 [1])	Kb (hNPFFR1 [2]; read-out: pA2 value for hNPFFR1 (converted)) [nM]	decrease of forskolin-stimulated cAMP accumulation (hNPFFR1 [2]; tested alone, up to 50 µM)	Molecule	in vivo activity after oral administration ([3]; oral, low dose of 1 mg/kg)	hyperalgesia induced by administration of fentanyl ([3]; rat, single 0.5 mg/kg dose, i.p.)	fentanyl-induced hyperalgesia ([3]; 0.5 mg/kg subcutaneously)	fentanyl-induced hyperalgesia ([3]; 3 mg/kg orally)	development of fentanyl-induced hyperalgesia ([3]; orally 0.3, 1 and 3 mg/kg)	development of fentanyl-induced hyperalgesia ([3]; subcutaneously 0.05, 0.1 and 0.5 mg/kg)	increase in inflammatory hyperalgesia induced by prior fentanyl injection [4]	pA2 value for hNPFFR1 (hNPFFR1 [5])	pA2 for hNPFFR2 (hNPFFR2)	activity on hyperalgesia induced by repeated administration of opiate analgesics [6]
60 nM and 65 nM	good affinity	> 13	very low affinity	did not stimulate	977	did not decrease	O=C(N[C@@H](CCCN1CCCCC1)C(=O)NCCc1ccccc1)c1ccccc1-c1ccccc1 [Compound 26, (2S)-N-(2-phenylethyl)-2-[(2-phenylphenyl)formamido]-5-(piperidin-1-yl)pentanamide]	highly satisfactory in vivo activity	blocks	completely abolished	completely abolished	dose-dependently prevented	dose-dependently prevented	completely prevented	–	–	–
–	–	–	–	–	–	–	N^α-adamantan-1-yl-L-Arg-L-Phe-NH2 acetate [RF9]	–	–	–	–	–	–	–	6.47	6,65	antihyperalgesic activity
